Where “and” joins values, the source holds several entries; their conditions need not be identical. Equal entries are not always repeated. Where two headings read alike, the source gives them in different places.
Tests used:
α-glucosidase = molecular target: T1, α-glucosidase (Saccharomyces cerevisiae, UniProt P53341); experiment: α-glucosidase inhibition assay (in situ screen, IC50, Ki); format: biochemical, baker's yeast; details: for α-glucosidase Inhibition (%): reaction product at 20 μM, in situ screening; for IC50: pure compound
T1 construct: purchased Sigma Co. (St. Louis, Mo.); host or cells: baker's yeast
T1 sequence (P53341 whole entry): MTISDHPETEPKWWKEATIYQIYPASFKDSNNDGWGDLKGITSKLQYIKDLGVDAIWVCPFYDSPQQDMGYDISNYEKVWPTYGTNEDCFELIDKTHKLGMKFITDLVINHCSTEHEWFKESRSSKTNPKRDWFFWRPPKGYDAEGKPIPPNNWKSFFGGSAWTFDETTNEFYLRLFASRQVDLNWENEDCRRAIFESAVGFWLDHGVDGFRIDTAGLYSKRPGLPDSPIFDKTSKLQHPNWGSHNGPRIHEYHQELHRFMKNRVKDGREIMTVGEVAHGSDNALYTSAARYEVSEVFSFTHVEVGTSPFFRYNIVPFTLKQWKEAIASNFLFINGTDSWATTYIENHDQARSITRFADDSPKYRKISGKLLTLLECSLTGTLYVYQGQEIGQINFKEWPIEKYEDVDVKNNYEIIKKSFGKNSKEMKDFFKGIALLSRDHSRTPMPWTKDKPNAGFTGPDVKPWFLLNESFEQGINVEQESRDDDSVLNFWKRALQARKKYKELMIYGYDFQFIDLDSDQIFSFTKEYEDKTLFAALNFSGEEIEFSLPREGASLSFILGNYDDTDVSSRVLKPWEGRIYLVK
Description: (§1) A mixture of iminocyclitol 4, a carboxylic acid (1 equiv, Scheme 2), diisopropyl ethylamine (DIEA, 2.2 equiv), and (1H-benzotriazole-1-yl)-1,1,3,3-tetramethyl-uronium hexafluorophosphate (HBTU, 1.1 equiv) in DMSO was shaken in 96-well microtiter plates for 5 h. Crude reaction products were randomly selected (30%) and analyzed by ESI-MS to ensure the presence of the desired products. The reaction mixture was diluted by appropriate buffer solutions and transferred to another 96-well microtiter plate for screening directly without any purification. […] Assuming the amide formation is complete, the percentage of inhibition relative to the control was calculated on the basis of absorbance at 405 nm for p-nitrophenol released from their corresponding substrates.
General procedure for coupling reactions and in situ screening. To a DMSO solution (10 μL) in each well of a 96-well microtiter plate was added each carboxylic acid (10 μL from a 10 mm stock solution in DMSO, 0.1 μmol), HBTU (10 μL from a 11 mm stock solution in DMSO, 1.1 equiv, 0.11 μmol), and DIEA (10 μL from a 22 mM stock solution in DMSO, 2.2 equiv, 0.22 μmol).
(§2) Enzyme assay. General procedure for the assay with various glycosidases. The initial velocities of the hydrolysis were measured spectrophotometrically at various concentrations of p-nitrophenyl-glycopyranoside (4 mM, 2 mM, 1 mM, 0.5 mM, 0.25 mM, 0.125 mM, 0.0625 mM) at 405 nm using Bio Assay Reader (Perkin Elmer HTS 7000 Plus) at 30° C. The obtained data were fitted into the Michaelis-Menten equation by using the Kaleida Graph program to determine the apparent Km values. […] The assays performed in wells of the microtiter plate contained either sodium phosphate buffer (50 mM, pH 7, for α- and β-glucosidase, α- and β-galactosidase, α- and β-mannosidase, α-fucosidase), or Mcllvaine's buffer (25 mM, pH 6, N-acetyl-β-hexosaminidase, jack bean).
(§3) The secondary plot was generated by plotting the apparent Km values as a function of inhibitor concentrations. Ki was calculated from the negative value of the x-intercept of this plot.

[1] = tested on: N-acetyl-β-hexosaminidase; experiment: N-acetyl-β-hexosaminidase inhibition assay (in situ screen, IC50, Ki); format: biochemical, jack bean; details: for N-acetyl-β-hexosaminidse Inhibition (%): reaction product at 30 μM, in situ screening; for IC50: pure compound, read-out: N-acetyl-β-hexosaminidse IC50
Description: as §1, §2, §3

β-glucosidase = β-glucosidase inhibition assay (in situ screen, IC50, Ki); format: biochemical, almonds; details: for β-glucosidase Inhibition (%): reaction product at 20 μM, in situ screening; for IC50: pure compound; for Ki: value in brackets
Description: as §1, §2, §3

[2] = tested on: Japanese encephalitis virus (JEV); experiment: Anti-JEV cell-based assay (plaque forming assay, BHK-21 cells)
[3] = tested on: dengue virus serotype 2 (DEN-2); experiment: Anti-DEN-2 cell-based assay (plaque forming assay, BHK-21 cells)
[4] = value in brackets, read-out: α-glucosidase (Ki)

Compound | α-glucosidase Inhibition (%) (α-glucosidase) | N-acetyl-β-hexosaminidse Inhibition (%) [1] [%] | β-glucosidase Inhibition (%) (β-glucosidase) | IC50 (α-glucosidase) [µM] | IC50 [1] [µM] | IC50 (β-glucosidase) [µM] | further results
O=C(CO)NC[C@H]1N[C@H](CO)[C@@H](O)[C@@H]1O [Compound 6] | 10 | 67 | 23 | – | – | – | –
CCCCC(CC)C(=O)NC[C@H]1N[C@H](CO)[C@@H](O)[C@@H]1O (some centres unmarked) [Compound 7] | 61 | 20 | 52 | 4 | 19 | 4.8 | inhibition of JEV infection ([2]; at 50 and 100 μM): no inhibition; inhibition of DEN-2 infection ([3]; at 50 and 100 μM): no inhibition
NC(Cn1ccc(=O)cc1)C(=O)NCC1NC(CO)C(O)C1O (centres unmarked) [Compound 9] | 27 | 53 | 37 | – | – | – | –
O=C(NC[C@H]1N[C@H](CO)[C@@H](O)[C@@H]1O)c1ccccc1 [Compound 10] | 16 | 13 | 12 | – | – | – | –
CN(C)c1ccc(C(=O)NC[C@H]2N[C@H](CO)[C@@H](O)[C@@H]2O)cc1 [Compound 11] | 41 | 6 | 55 | – | – | – | –
O=C(/C=C/c1cccc(C(F)(F)F)c1)NC[C@H]1N[C@H](CO)[C@@H](O)[C@@H]1O [Compound 12] | 19 | 8 | 49 | – | – | – | –
O=C(/C=C/c1cccc(Cl)c1)NC[C@H]1N[C@H](CO)[C@@H](O)[C@@H]1O [Compound 13] | 19 | 3 | 59 | – | – | – | –
CSc1ccccc1C(=O)NC[C@H]1N[C@H](CO)[C@@H](O)[C@@H]1O [Compound 14] | 51 | 54 | 7 | – | – | – | –
O=C(NC[C@H]1N[C@H](CO)[C@@H](O)[C@@H]1O)c1ccc2ccccc2c1 [Compound 15] | 45 | 31 | 28 | 100 | 44 | 58 | Ki (β-glucosidase): 30 µM
O=C(Cc1ccc2ccccc2c1)NC[C@H]1N[C@H](CO)[C@@H](O)[C@@H]1O [Compound 16] | 67 | 10 | 44 | 19 | 15 | 49 | –
O=C(Cc1cccc2ccccc12)NC[C@H]1N[C@H](CO)[C@@H](O)[C@@H]1O [Compound 17] | 94 | 45 | 45 | 0.28 | – | 92 | inhibition of JEV infection ([2]; at 50 and 100 μM): no inhibition; Ki (α-glucosidase; [4]): 0.077 µM; inhibition of DEN-2 infection ([3]; at 50 and 100 μM): no inhibition
COC(=O)c1ccc2[nH]c(C(=O)NC[C@H]3N[C@H](CO)[C@@H](O)[C@@H]3O)cc2c1 [Compound 18] | 36 | 23 | 53 | 120 | 42 | 10 | Ki (β-glucosidase): 6.2 µM
O=C(NC[C@H]1N[C@H](CO)[C@@H](O)[C@@H]1O)c1ccc2[nH]ccc2c1 [Compound 19] | 82 | 14 | 15 | – | – | – | –
O=C(Cc1c[nH]c2ccccc12)NC[C@H]1N[C@H](CO)[C@@H](O)[C@@H]1O [Compound 20] | 85 | 29 | 23 | 1.2 | – | 130 | inhibition of JEV infection ([2]; at 50 and 100 μM): no inhibition; Ki (α-glucosidase; [4]): 0.43 µM; inhibition of DEN-2 infection ([3]; at 50 and 100 μM): no inhibition
O=C(CCc1c[nH]c2ccccc12)NC[C@H]1N[C@H](CO)[C@@H](O)[C@@H]1O [Compound 21] | 83 | 27 | 20 | 11 | 3.2 | 75 | –
O=C(/C=C/c1c[nH]c2ccccc12)NC[C@H]1N[C@H](CO)[C@@H](O)[C@@H]1O [Compound 22] | 42 | 16 | 34 | 0.81 | 63 | 260 | inhibition of JEV infection ([2]; at 50 and 100 μM): no inhibition; inhibition of DEN-2 infection ([3]; at 50 and 100 μM): no inhibition
O=C(NC[C@H]1N[C@H](CO)[C@@H](O)[C@@H]1O)c1cn(Cc2ccccc2)c2ccccc12 [Compound 23] | 63 | 14 | 28 | 17 | 4.7 | 92 | –
O=C(NC[C@H]1N[C@H](CO)[C@@H](O)[C@@H]1O)C1Cc2ccccc21 (some centres unmarked) [Compound 24] | 93 | 9 | 45 | 0.15 | 11 | 92 | inhibition of JEV infection ([2]; at 50 and 100 μM): no inhibition; selectivity for α- over β-glucosidase (α-glucosidase): 600 fold; Ki (α-glucosidase; text b9, read-out: Ki, α-glucosidase): 0.053 µM; Ki (α-glucosidase; text b34, read-out: Ki against yeast α-glucosidase): 0.053 µM; Ki (α-glucosidase; [4]): 0.053 µM; increase in activity compared to parent core 4 (α-glucosidase; α-glucosidase): 100 fold; inhibition of DEN-2 infection ([3]; at 50 and 100 μM): no inhibition
O=C(NC[C@H]1N[C@H](CO)[C@@H](O)[C@@H]1O)c1ccc2c(c1)C(=O)c1ccccc1-2 [Compound 25] | 56 | 17 | 63 | – | – | – | –
O=C(/C=C/c1cccc(Br)c1)NC[C@H]1N[C@H](CO)[C@@H](O)[C@@H]1O [Compound 26] | 31 | 17 | 52 | – | – | – | –
Cc1ccc(/C=C/C(=O)NC[C@H]2N[C@H](CO)[C@@H](O)[C@@H]2O)cc1 [Compound 27] | 26 | 6 | 55 | – | – | – | –
COc1ccc(/C=C/C(=O)NC[C@H]2N[C@H](CO)[C@@H](O)[C@@H]2O)cc1OC(C)=O [Compound 28] | 27 | 52 | – | 250 | – | 2.4 | Ki (β-glucosidase): 1.24 µM and 1.2 µM
CN(C)c1ccc(/C=C/C(=O)NC[C@H]2N[C@H](CO)[C@@H](O)[C@@H]2O)cc1 [Compound 29] | 22 | 17 | 55 | 280 | 7.02 | 3.2 | Ki (β-glucosidase): 1.4 µM
CC(=O)OC[C@H]1N[C@H](CNC(=O)C2Cc3ccccc32)[C@@H](OC(C)=O)[C@@H]1OC(C)=O (some centres unmarked) [Compound 30] | – | – | – | – | – | – | inhibition of JEV infection ([2]; at 50 μM): no inhibition; inhibition of DEN-2 infection ([3]; at 50 μM): no inhibition
CCCCCCCCCN1C(CO)C(O)C(O)C1CNC(=O)C1Cc2ccccc21 (centres unmarked) [Compound 36] | – | – | – | – | – | – | IC50 ([2]; read-out: JEV IC50, M.O.I. = 0.1, virus production, BHK-21 cells): 11.3 ± 1.9 µM; IC90 ([2]; read-out: JEV IC90, M.O.I. = 0.1, virus production, BHK-21 cells): 17.5 ± 0.8 µM; IC50 ([3]; read-out: DEN IC50, M.O.I. = 0.1, virus production, BHK-21 cells): 11.8 ± 0.2 µM; IC90 ([3]; read-out: DEN IC90, M.O.I. = 0.1, virus production, BHK-21 cells): 18 ± 0.2 µM

Source: US8273788B2, “Five-membered iminocyclitol derivatives as selective and potent glycosidase inhibitors: new structures for antivirals and osteoarthritis therapeutics” (Academia Sinica, Taiwan, priority 2005, dated 2012)
